From patent US5912258A, “Thiadiazoleamide derivative and anti-ulcer drug” (Shiseido Co., Ltd., priority 1998, dated 1999)

How the values were obtained:
[1] = test system: gastric corpus mucosa cells; assay: MTT: Cell Damaging and Protecting Effect Test; format: cell-based, male Japanese White rabbit; conditions: rabbit gastric mucosa cells, 10^-4 M, 4 hours; smaller value is better; 100 µM
Text: MTT: Cell Damaging and Protecting Effect Test
It is confirmed that there is no toxicity in cell level. Those having toxicity in cell level are inappropriate as an anti-ulcer drug.
A male Japanese White rabbit (2.5 to 3 kg) was anesthetized to death by Nembutal™ and, immediately thereafter, its stomach was removed. The greater curvature of the stomach was incised so as to remove the stomach contents therefrom. After the mucosal surface was washed with HBSS (Hank's Balanced Salt Solution), the stomach in ice-cooled HBSS was transferred to a laboratory. Then, after the pyloric antrum was removed, the gastric corpus mucosa was separated by a spatula and then minced into 2 to 3 mm pieces in BME (Basal Medium Eagle). Thereafter, these pieces were shaken at 120 to 130 cycles/minute for 15 minutes at 37° C. in BME 60 ml containing 280 U/ml of dispase and 30 to 50 U/mil of collagenase. Here, the concentration of collagenase was appropriately changed for each lot in view of the state of cells. The pieces were washed twice with EBSS (Earle's Balanced Salt Solution) containing 1 mM of EDTA and then shaken in MEM (Minimum Essential Medium) containing 1 mM of EDTA at 37° C. for 5 minutes. Subsequently, they were shaken in the dispase and collagenase having the same concentrations as those mentioned above for 15 minutes so as to remove the supernatant and then further shaken at 37° C. for 50 to 60 minutes at 120 to 130 cycles/minute. Then, after being washed twice with HBSS, Ham F12 containing 2% of Ultrocer G™ was used to attain the concentration of 1×10^6 cells/ml. Thus formed suspension was dispensed in each well of a 96-well plate by 200 μl. The plate was incubated in the atmosphere composed of 5% CO2 and 95% air at 37° C. for three days so as to attain a confluent state and then subjected to MTT assay.
The sample compound was dissolved in DMSO so as to attain a concentration of 10^-2 M and then diluted with HBSS containing 2% of Ultrocer G™ so as to attain a final concentration of 10^-4 M. To each group, which 8 wells were used for, 10 μl of MTT reagent was added immediately after 100 μl of the medium in each well was exchanged for same volume of the resulting solution of the sample compound. After being incubated in an atmosphere composed of 5% CO2 and 95% air at 37° C. for 4 hours, thus formed solution was centrifuged and then its supernatant was discarded. Subsequently, 100 μl of 100% ethanol was added to the residue so as to dissolve MTT formazan. Then, the absorbance (OD: 570 to 630) was measured by a microplate reader. This method utilizes a phenomenon in which MTT is changed to MTT formazan only by mitochondria of living cells so as to change color.
The cell damaging or cell protecting effect of the sample compound at the final concentration of 10^-4 M was expressed as cell damaging rate (%) as follows:
cell damaging rate (%)={1-(absorbance in sample group/absorbance in control group)}×100
Accordingly, the smaller value is better in the cell damaging rate.

Slc:ICR mice = test system: Slc:ICR mice; set-up: species or system Male Slc:ICR mice; conditions: mouse, in vivo
Description: AT: Single Dose Toxicity Pretest
Male Slc:ICR mice (5-week-old) were used. Each group has 3 to 5 mice and each mouse was fasted, but allowed free access to water, for 4 to 5 hours from 9 a.m. in the test day. Then, 2,000 mg/10 ml/kg of the sample compound dissolved or suspended in an aqueous solution of 0.5% sodium carboxymethylcellulose was orally administered thereto. To a control, only the vehicle was administered. […] The body weight was measured before and after the fasting as well as at the same time everyday. The dead animals were immediately subjected to autopsy and their organs were observed by naked eyes. Also, the living animals were sacrificed with ether or carbon dioxide one week after the administration and then their organs were observed by naked eyes.
The toxicity at the single dose of 2,000 mg/kg of the sample compound was expressed as being classified into 5 levels.
5: Mortality rate is 0%; no toxicity is found at all both in behavior and organs.
4: Mortality rate is 0%; while no toxicity is found in organs, slight toxicity is observed in behavior and body weight increase.
3: While there is a dead animal (though not all the animals are dead), no toxicity is found in organs.
2: Regardless of whether there is a dead animal or not, toxicity is found in organs.
1: All the animals are dead.

[2] = test system: histamine-stimulated gastric acid secretion (pylorus-ligated rats); assay: VOL, TAO: Acid Secretion Inhibition Test in vivo; set-up: species or system Male Crj:Donryu rats; conditions: rat, 100 mg/kg orally, histamine 30 mg/kg s.c.
Description: VOL, TAO: Acid Secretion Inhibition Test in vivo
Inhibitory effect on acid secretion in vivo is confirmed.
Male Crj:Donryu rats (7-week-old) were fasted overnight but allowed free access to water. In each group, 8 to 10 of these rats were used under urethane anesthesia (1.25 g/kg). The sample compound dissolved or suspended in an aqueous solution of 0.5% sodium carboxymethylcellulose or 0.05% Tween 80 was orally administered (100 mg/10 ml/kg). 30 minutes later, the abdomen of each was incised and the pylorus was ligated. 30 minutes after the ligation, 30 mg/kg of histamine dissolved in physiological saline was subcutaneously administered and, 3 hours thereafter, the rat was sacrificed with carbon dioxide. Immediately thereafter, each stomach was removed and the gastric contents were collected and each volume was determined. The total acid output was determined by titration of the gastric juice with 0.1N NaOH.
With respect to the gastric juice volume (VOL) and the total acid output (TAO), the effects obtained when 100 mg/kg of the sample compound had been administered were expressed as their respective inhibitory rates (%) as follows:
each inhibitory rate (%) {1-(value in sample group/value in control group)}×100

`CC(C)c1ccc(C(=O)Nc2nnc(SCCN(C(C)C)C(C)C)s2)cc1` [Example 2, 2-(4-isopropylbenzoyl)amino-5-diisopropylaminoethylthio-1,3,4-thiadiazole] was tested, and the “MTT: cell damaging rate” value [1] was -77% and the “AT: toxicity at the single dose (5 levels)” value (“AT: toxicity” below) (Slc:ICR mice) was 5.

With `CCN(CC)CCSc1nnc(NC(=O)c2ccc(OC/C=C(\C)CCC=C(C)C)cc2)s1` [Example 10, 2-(4-geranyloxybenzoyl)amino-5-diethylaminoethylthio-1,3,4-thiadiazole] the “TAO: total acid output inhibitory rate” value [2] was 44%, the “VOL: gastric juice volume inhibitory rate” value [2] was 36% and the “AT: toxicity” value (Slc:ICR mice) was 5.

For `CC(C)=CCC/C(C)=C/COc1ccc(C(=O)Nc2nnc(SCCN3CCCCC3)s2)cc1` [Example 12, 2-(4-geranyloxybenzoyl)amino-5-piperidinoethylthio-1,3,4-thiadiazole], the “AT: toxicity” value (Slc:ICR mice) was 5.

In the case of `CC(C)=CCC/C(C)=C/COc1ccc(C(=O)Nc2nnc(SCc3ccccn3)s2)cc1` [Example 14, 2-(4-geranyloxybenzoyl)amino-5-(2-pyridylmethyl)thio-1,3,4-thiadiazole], the “AT: toxicity” value (Slc:ICR mice) is reported as 5.

With `CCSc1nnc(NC(=O)c2ccc(OC/C=C(\C)CCC=C(C)C)cc2)s1` [Example 15, 2-(4-geranyloxybenzoyl)amino-5-ethylthio-1,3,4-thiadiazole] the “TAO: total acid output inhibitory rate” value [2] was 19%, the “VOL: gastric juice volume inhibitory rate” value [2] was 10% and the “AT: toxicity” value (Slc:ICR mice) was 5.
